Source: PubChem BioAssay AID2060497 (Molecular Pharmacology Branch, DTP, NCI, 2025)

Tested on: 317291-083-R-J1-PDC complex spheroids, viability
Test: Anticancer human tumor 317291-083-R-J1-PDC patient-derived soft tissue sarcoma cell line growth inhibition [GQUAD]
Settings: for IC50: curve of first compound; for viability, T/C: stronger effect = lower value; active = viability on the fitted dose curve at most 10% of control; inactive = the rest
Procedure, shortened: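 Tumor cells were grown as complex spheroids with HUVEC endothelial cells and mesenchymal stem cells as stroma. G-quadruplex stabilizers were combined with targeted agents over half-log dilutions from near the clinical Cmax, or from 10 microM.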

[1] = second compound 0.0316 µM, first compound 0.0316 µM
[2] = second compound 0.0316 µM, first compound 0.1 µM
[3] = second compound 0.0316 µM, first compound 0.316 µM
[4] = second compound 0.0316 µM, first compound 1 µM
[5] = second compound 0.0316 µM, first compound 3.16 µM
[6] = second compound 0.0316 µM, first compound 10 µM
[7] = second compound 0.1 µM, first compound 0.0316 µM
[8] = second compound 0.1 µM, first compound 0.1 µM
[9] = second compound 0.1 µM, first compound 0.316 µM
[10] = second compound 0.1 µM, first compound 1 µM
[11] = second compound 0.1 µM, first compound 3.16 µM
[12] = second compound 0.1 µM, first compound 10 µM
[13] = second compound 0.316 µM, first compound 0.0316 µM
[14] = second compound 0.316 µM, first compound 0.1 µM
[15] = second compound 0.316 µM, first compound 0.316 µM
[16] = second compound 0.316 µM, first compound 1 µM
[17] = second compound 0.316 µM, first compound 3.16 µM
[18] = second compound 0.316 µM, first compound 10 µM
[19] = second compound 1 µM, first compound 0.0316 µM
[20] = second compound 1 µM, first compound 0.1 µM
[21] = second compound 1 µM, first compound 0.316 µM
[22] = second compound 1 µM, first compound 1 µM
[23] = second compound 1 µM, first compound 3.16 µM
[24] = second compound 1 µM, first compound 10 µM
[25] = second compound 3.16 µM, first compound 0.0316 µM
[26] = second compound 3.16 µM, first compound 0.1 µM
[27] = second compound 3.16 µM, first compound 0.316 µM
[28] = second compound 3.16 µM, first compound 1 µM
[29] = second compound 3.16 µM, first compound 3.16 µM
[30] = second compound 3.16 µM, first compound 10 µM
[31] = second compound 10 µM, first compound 0.0316 µM
[32] = second compound 10 µM, first compound 0.1 µM
[33] = second compound 10 µM, first compound 0.316 µM
[34] = second compound 10 µM, first compound 1 µM
[35] = second compound 10 µM, first compound 3.16 µM
[36] = second compound 10 µM, first compound 10 µM
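Note: spheroids exposed to compounds for one week before readout.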
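Throughout, for viability, T/C: percent viability relative to DMSO vehicle wells taken as 100%.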

COc1cccc2c1C(=O)c1c(O)c3c(c(O)c1C2=O)CC(O)(C(=O)CO)CC3OC1CC(N)C(O)C(C)O1 (stereo unspecified) + Cc1[nH]c2ccc(F)cc2c1-c1nc2c3cccnc3c3ncccc3c2[nH]1
72.1 nM: IC50 (second compound 0.1 µM)
65.2 nM: IC50 (second compound 10 µM)
135 nM: IC50 (second compound 1 µM)
active: viability, T/C [4] 9.79% | viability, T/C [5] 0.88% | viability, T/C [6] 4.17% | viability, T/C [10] 8.91% | viability, T/C [11] 1.29% | viability, T/C [12] 2.78% | viability, T/C [16] 13.5% | viability, T/C [17] 1.55% | viability, T/C [18] 3.24% | viability, T/C [22] 11.1% | viability, T/C [23] 1.17% | viability, T/C [24] 1.78% | viability, T/C [28] 16.5% | viability, T/C [29] 1.5% | viability, T/C [30] 1.98% | viability, T/C [34] 8.13% | viability, T/C [35] 1.49% | viability, T/C [36] 2.3%
inactive: viability, T/C [1] 112% | viability, T/C [2] 31.8% | viability, T/C [3] 21.9% | viability, T/C [7] 80.3% | viability, T/C [8] 35.4% | viability, T/C [9] 21.6% | viability, T/C [13] 88.3% | viability, T/C [14] 36.5% | viability, T/C [15] 19.7% | viability, T/C [19] 89.8% | viability, T/C [20] 60.3% | viability, T/C [21] 21.3% | viability, T/C [25] 77% | viability, T/C [26] 31.2% | viability, T/C [27] 18% | viability, T/C [31] 68.3% | viability, T/C [32] 39.3% | viability, T/C [33] 16.9%
81 nM: IC50 (second compound 0.0316 µM)
65.5 nM: IC50 (second compound 3.16 µM)
77.4 nM: IC50 (second compound 0.316 µM)

Nc1ccn(C2OC(CO)C(O)C2(F)F)c(=O)n1 (stereo unspecified) + Cc1[nH]c2ccc(F)cc2c1-c1nc2c3cccnc3c3ncccc3c2[nH]1
35.1 nM: IC50 (second compound 3.16 µM)
active: viability, T/C [21] 10.5% | viability, T/C [22] 9.19% | viability, T/C [23] 9.71% | viability, T/C [24] 8.18%
32.8 nM: IC50 (second compound 0.316 µM)
< 31.6 nM: IC50 (second compound 10 µM)
37.1 nM: IC50 (second compound 1 µM)
44.8 nM: IC50 (second compound 0.0316 µM)
inactive: viability, T/C [1] 63% | viability, T/C [2] 20.3% | viability, T/C [3] 11.9% | viability, T/C [4] 11% | viability, T/C [5] 11.8% | viability, T/C [6] 8.15% | viability, T/C [7] 57.9% | viability, T/C [8] 27.4% | viability, T/C [9] 14.8% | viability, T/C [10] 12.3% | viability, T/C [11] 11% | viability, T/C [12] 9.19% | viability, T/C [13] 51.2% | viability, T/C [14] 16.1% | viability, T/C [15] 13.1% | viability, T/C [16] 16.2% | viability, T/C [17] 10.3% | viability, T/C [18] 8.34% | viability, T/C [19] 55.6% | viability, T/C [20] 15.8% | viability, T/C [25] 52.8% | viability, T/C [26] 22.5% | viability, T/C [27] 12% | viability, T/C [28] 12% | viability, T/C [29] 11.2% | viability, T/C [30] 10.7% | viability, T/C [31] 40.3% | viability, T/C [32] 13.2% | viability, T/C [33] 10.2% | viability, T/C [34] 8.15% | viability, T/C [35] 13.3% | viability, T/C [36] 9.1%
42.8 nM: IC50 (second compound 0.1 µM)

O=c1[nH]cc(F)c(=O)[nH]1 + Cc1[nH]c2ccc(F)cc2c1-c1nc2c3cccnc3c3ncccc3c2[nH]1
5340 nM: IC50 (second compound 0.0316 µM)
2710 nM: IC50 (second compound 3.16 µM)
1600 nM: IC50 (second compound 1 µM)
inactive: viability, T/C [1] 118% | viability, T/C [2] 117% | viability, T/C [3] 116% | viability, T/C [4] 69.5% | viability, T/C [5] 73.3% | viability, T/C [6] 31.8% | viability, T/C [7] 110% | viability, T/C [8] 106% | viability, T/C [9] 96.7% | viability, T/C [10] 62.2% | viability, T/C [11] 34.7% | viability, T/C [12] 30.6% | viability, T/C [13] 108% | viability, T/C [14] 104% | viability, T/C [15] 89.1% | viability, T/C [16] 63.6% | viability, T/C [17] 35.4% | viability, T/C [18] 31.8% | viability, T/C [19] 93.9% | viability, T/C [20] 102% | viability, T/C [21] 102% | viability, T/C [22] 60.9% | viability, T/C [23] 36.5% | viability, T/C [24] 31.9% | viability, T/C [25] 99.3% | viability, T/C [26] 86.6% | viability, T/C [27] 79.2% | viability, T/C [28] 45.2% | viability, T/C [29] 64.3% | viability, T/C [30] 30.2% | viability, T/C [31] 73.6% | viability, T/C [32] 75.9% | viability, T/C [33] 81.5% | viability, T/C [34] 44.5% | viability, T/C [35] 33% | viability, T/C [36] 27.4%
823 nM: IC50 (second compound 10 µM)
1680 nM: IC50 (second compound 0.1 µM)
1770 nM: IC50 (second compound 0.316 µM)
